Here are results for ten compounds from patent publication US9487558B2, “Short bio-active peptides for promoting wound healing” (HELIX BIOMEDIX, INC., priority 2013, dated 2016).

Ends that are not written are not given here. Peptide text beside a SMILES is read from it. Where only a bound is given, the exact number is not on record here.

Series [1] in a line: MTT cytotoxicity on normal human skin keratinocytes. Particulars: normal human epidermal keratinocytes.
Procedure: (§1) To make sure the peptides are not cytotoxic to the cells, normal human epidermal keratinocytes were seeded to a 96-well plate. The plate was incubated at 37° C. in the presence of 5% CO2 to allow the cells to grow to >95% confluent. Peptides are diluted into stock solutions at concentrations of 50, 100, 200, and 500 μg/ml. The cell culture media are replaced with fresh media containing peptides at various concentrations then incubated at 37° C. and 5% CO2 for 24 hr. At the end of treatment the cell viability was measured using MTT assay kit purchased from ATCC (Manassas Va.).
The test system of series [2] is wound repair in a murine model. To be noted: cited from earlier work.
The next series can be described thus: in vitro. To be noted: human, normal human epidermal keratinocytes.

Procedure for in vitro: as §1

In the case of `CSCC[C@H](N)C(=O)NCC(=O)N[C@@H](CCCNC(=N)N)C(=O)N[C@@H](CC(N)=O)C(=O)O` [HB2235, MGRN] (H-MGRN-OH), the CC50 at 24 h in series [1] was > 500 µg/mL.
With “MPKEKVFLKIEKMGRNIRN (Peptide HB107) [non-antimicrobial host defense peptide derived from cecropin B]”, the “Benefit in wound repair” value in series [2] (murine model, compared with growth factor rhPDGF) is recorded as “indistinguishable from the wound treated with growth factor rhPDGF”. Moreover, the “Epidermal hyperplasia (histological analysis of treated wounds)” value in series [2] (murine wounds) was “increased”.
As to KMGRN [HB2262, KMGRN], in series [1], the CC50 at 24 h was > 500 µg/mL.
With `CSCC[C@H](NC(=O)[C@@H](N)CCCCN)C(=O)NCC(=O)O` [HB2268, KMG] (H-Lys-Met-Gly-OH), the CC50 at 24 h in “in vitro” is > 500 µg/mL.
With GRNIRN [HB1062, GRNIRN], the CC50 at 24 h in series [1] was > 500 µg/mL.
Same read-out and setting: as for `N=C(N)NCCC[C@H](NC(=O)CN)C(=O)N[C@@H](CC(N)=O)C(=O)O` [HB2269, GRN] (H-Gly-Arg-Asn-OH), the figure is > 500 µg/mL; as for `CC[C@H](C)[C@H](NC(=O)[C@@H](N)CCCCN)C(=O)N[C@@H](CCC(=O)O)C(=O)N[C@@H](CCCCN)C(=O)O` [HB2232, KIEK] (H-KIEK-OH), > 500 µg/mL; as for `CSCC[C@H](NC(=O)[C@H](CCCCN)NC(=O)[C@@H](N)CCC(=O)O)C(=O)NCC(=O)O` [HB2234, EKMG] (H-EKMG-OH), > 500 µg/mL.
Turning to EKMGR [HB2263, EKMGR], the CC50 at 24 h in series [1] was > 500 µg/mL.
As to EKMGRN [HB2265, EKMGRN], in series [1], the CC50 at 24 h was > 500 µg/mL.
